Source: US20020132236A1, “Specific inhibitors of ribosome recycling factors (RRF)” (priority 2000, published 2002)
“Also recorded” adds a separate entry of the source.

Tests used:
E. coli RRF = E. coli RRF (Escherichia coli, UniProt P0A805); experiment: Gel retardation assay with E. coli RRF and 32P-end-labeled sd-G4; assay type: binding; details: about 2.4 μM, competed by non-labeled sd-G4, BSA negative control
Method: The reaction mixture for the binding of ^32P-end-labeled sd-G4 to RRF (10 μl) contains 8 mM Tris-Cl(pH 7.6), 9.7 mM MgSO4, 81 mM NH4Cl, 1.3 mM DTT, and approximately 2.4 μM of ^32P-end-labeled sd-G4. E. coli RRF, EF-G, polysome, BSA are added as indicated in FIG. 9 and competitor non-labeled sd-G4 is added at ½, 1, 2, and 4 times the concentration of the labeled sd-G4 (FIG. 9). The mixture is incubated at 30° C. for 15 min. 5% Glycerol and one-tenth volume of 25% Ficoll containing xylane cyanol and bromphenol blue is added, and the entire reaction mixture is subjected to 4% polyacrylamide gel (29:1, acrylamide/bisacrylamide) electrophoresis at 10 V/cm with constant recirculation of TBE buffer (89 mM Tris-borate, 2.5 mM EDTA, pH 8.3). The gel is dried onto Whatman 3MM paper and subject to autoradiography.

[1] = system: translation of polyuridylic acid (Poly U) into polyphenylalanine; experiment: Translation of polyuridylic acid (Poly U) into polyphenylalanine in S30 extract; assay type: biochemical, E. coli; details: as high as 10 μM
Method: The reaction mixture (30 μl) contains 12 μl S30, Premixture (Promega), 20 μM ^14C-phenylalanine (Amersham, 450 Ci/mole), 10 mM Mg acetate (MgAc), 0.08 μg/ml polyU (Sigma), 1 A260 unit of E. coli S30 extract (Promega), and 1, 4, 7, or 10 μM sd-G4 (FIG. 4). The reaction mixture is incubated at 37° C. At various periods after the onset of the reaction, hot TCA (trichloroacetic acid) insoluble counts are measured.

RRF [2] = molecular target: T1, RRF (Escherichia coli, UniProt P0A805); experiment: Release of ribosome-bound deacylated tRNA by RRF; assay type: biochemical; details: 7 μM, various amounts of E. coli polysome
Method: The reaction mixture (550 μl) for the RRF reaction contains 0.2 nmole RRF where indicated, 0.2 nmole EF-G, 0.37 μM GTP, 275 μM puromycin, 10 μM sd-G4 where indicated, and various amounts of E. coli polysome (see FIG. 8). The mixture is incubated for 15 min. at 30° C. The released tRNA is separated from the complex with pre-washed Microcon 100 (Millipore, 330× g, 40 min). The filter is washed once by centrifugation with 550 μl of a buffer (10 mM Tris-Cl, pH 7.6, 8.2 mM MgSO4, 80 mM NH4Cl, 0.14 mM DTT) and combined with the filtrate. Separated tRNA solution is concentrated with Microcon 30 (Millipore, 14,000× g, 15 min. twice) to a total volume of 14 μl. The concentrated tRNA is charged with 0.15 μCi of ^14C-amino acids mixture (Amersham, 52 mCi/mg) in 30 μl of the reaction mixture (50 mM Tris-Cl, pH 7.8,10 mM MgAc, 6 mM β-mercaptoethanol, 3 mM ATP, 5 mM phosphoenolpyruvate, 138 μg pyruvate kinase, 33.3 μg aminoacyl tRNA synthetases). Cold (4° C.) TCA (trichloro acetic acid) insoluble radioactivity is measured to estimate the amount of tRNA released. In this experiment, the amount of tRNA released is measured by its capacity to accept an amino acid.

[3] = system: MS2 RNA dependent protein synthesis; experiment: MS2 RNA dependent protein synthesis in S30 extract; assay type: biochemical, E. coli; details: 7 μM, 8 minute point
Method: The reaction mixture (30 μl) contains 12 μl S30 (Kaji, 1968), Premixture (Promega), 2.4 μg MS2 phage RNA (Boehringer Mannheim), 0.1 mM amino acids mixture minus methionine (Promega), 10.1 pmole ^35S-methionine (NEN, 0.6 Ci/μmole), 0.6 A ^260U S30 extract (Promega), and 1, 4, 7, or 10 μM sd-G4 (FIG. 3). The reaction mixture is incubated at 37° C. At various times after the onset of the reaction, hot TCA (trichloroacetic acid) insoluble counts are measured.

RRF [4] = molecular target: T1, RRF; experiment: RRF reaction: conversion of polysomes to monosomes (sucrose gradient); assay type: biochemical, E. coli; details: for Inhibition of the RRF reaction (conversion of polysomes to monosome): dose response, expressed as percent inhibition
Method: The reaction mixture (275 μl) contained 72 ng/ml RRF, 0.4 μg/ml EF-G, 363 nM GTP, 10 mM Tris-Cl, pH 7.4, 8.2 mM MgSO4, […] NH4Cl, 0.3 mM DTT, […] puromycin, 1 A260 polysome of E. coli, and an increasing concentration of sd-G4, as indicated in FIG. 1. The reaction mixture is incubated for 15 min at 30° C., loaded onto a sucrose gradient (15% to 30% in buffer J (Hirashima, A., Kaji, A., Biochemistry 11: 461-471, 1972) and centrifuged at 40,000 rpm for 75 min at 4° C. The ISCO density gradient analyzer monitored sedimentation profiles of the polyribosome. The value is expressed as a percent inhibition calculated from the area of 70S and polysome on those profiles.

RRF [5] = molecular target: T1, RRF; experiment: as above; assay type: biochemical, E. coli; details: 1× RRF (72 ng/ml) vs 2× RRF (144 ng/ml)
Swiss Webster male mice = experiment: Toxicity studies in mice; assay type: in vivo; details: iv, ip
Method: Swiss Webster male mice weighing 20-25 grams receive intraperitoneal or intravenous injections of tetra guanylic acid, dissolved in 0.9% sodium chloride, see Table 1 for dosages.
For sd-G4 to be active as a specific inhibitor of RRF sd-G4 must be non-toxic in living organisms. Dosages (20-125 mg/kg) of sd-G4 and its related tetra nucleotides are administered to mice intraperitonially, as well as intraveniously, and neither acute nor chronic toxicity is noted, i.e., no grossly observable changes in growth activity, locomotor activity, food intake, or water intake during an observation period of 25 days. Moreover, no pathological signs are noted at autopsy (Table 1). […] Thus, sd-G4 is best choice for a lead compound in the computer based rational design of the anti RRF agents.

T1 sequence (P0A805 whole entry): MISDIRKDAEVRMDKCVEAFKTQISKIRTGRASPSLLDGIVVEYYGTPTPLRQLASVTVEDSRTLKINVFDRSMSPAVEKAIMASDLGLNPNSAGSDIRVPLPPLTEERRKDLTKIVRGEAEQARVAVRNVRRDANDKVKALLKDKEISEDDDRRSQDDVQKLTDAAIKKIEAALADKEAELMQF
Chain of E. coli RRF (P0A805 whole entry): as above

For “phosphorothioate tetradeoxyguanylic acid [sd-G4]”, the “Binding to RRF (retarded electrophoretic movement)” value (E. coli RRF) was “binds”, the “Polyphenylalanine formation (incorporation of labeled phenylalanine)” value [1] was “does not inhibit” and the “Release of ribosome-bound deacylated tRNA by RRF” value (RRF [2]) was “does not inhibit release of tRNA”. The “Inhibition of protein synthesis (MS2 phage RNA translation)” value [3] was 50%, the “Concentration that significantly inhibited the RRF reaction” value (RRF [4]; 72 ng/ml RRF, 15 min at 30° C.) was 5 µM and the “Inhibition of the RRF reaction (conversion of polysomes to monosome)” value (RRF [4]) was “inhibits the RRF reaction in a dose-dependent manner; also recorded: has inhibitory activity; also recorded: effective”. For the same substance, the “Effect of excess RRF on inhibition of the RRF reaction” value (RRF [5]) was “reduced by addition of more RRF” and the Visual effect (Swiss Webster male mice; 20 mg-125 mg/kg) was “none”.

5′ phosphorylated sd-G4 [p sd-G4] was tested, and the Visual effect (Swiss Webster male mice; 20 mg-125 mg/kg) was “none”.

In the case of “deoxyguarylic acid [d-G4, reference compound]”, the Visual effect (Swiss Webster male mice; 125 mg/kg) is reported as “none”.

In the case of tetrathymidylic acid, the “Inhibition of the RRF reaction (conversion of polysomes to monosome)” value (RRF [4]) is reported as “ineffective”.

Tetraadenylic acid was tested, and the “Inhibition of the RRF reaction (conversion of polysomes to monosome)” value (RRF [4]) was “ineffective”.

For tetracytidylic acid, the “Inhibition of the RRF reaction (conversion of polysomes to monosome)” value (RRF [4]) was “ineffective”.

“phospo diester tetraguanylic acid [pd-G4]” was tested, and the “Inhibition of the RRF reaction (conversion of polysomes to monosome)” value (RRF [4]) was “not effective in inhibiting RRF” and the “Inhibition of the RRF reaction (conversion of polysomes to monosome)” value (RRF [4]; listed as phosphodiester oligoG) was “retains the ability to inhibit RRF to some extent”.

In the case of “riboinosinic tetraphosphate [(RIP)4, reference compound]”, the Visual effect (Swiss Webster male mice; 125 mg/kg) is reported as “none”.
